Results published in patent US20250115926A1, “DEREGULATED DHS AND TYRA ENZYMES OF GRASSES ENABLE EFFICIENT PRODUCTION OF BOTH TYROSINE AND PHENYLALANINE” (Wisconsin Alumni Research Foundation, priority 2023, published 2025).
Where “and” joins values, the source holds several entries; their conditions need not be identical. Equal values may be shown once. Where a name gives a salt, the structure may show the parent alone.

Experiments:
[1] = system: Brachypodium distachyon DHS enzymes (BdDHS1a, BdDHS1b, BdDHS2); test: DHS activity: kinetics and effector inhibition, three isoforms together; assay type: biochemical; details: arogenate treated with 1N HCl for 30 minutes (FIG. 16A)
Excerpt: (§1) To examine their functional properties, the recombinant DHS enzymes of Brachypodium were produced and characterized in vitro.
(§2) As recent studies have shown that plant DHS enzymes are feedback-inhibited by multiple effector molecules^15, 16, we tested the effect of AAAs and another 14 related metabolites, including various intermediates of the shikimate pathway and the pathways downstream of AAAs, on Brachypodium DHS enzymes.
(§3) The DHS assay for UHPLC-MS quantification was set up using the same settings as described in the previous paragraph for the UV-based DHS assay, which guaranteed at least 10 minutes of reaction linearity. After a 10-minute incubation, 20 μL of the reactions (out of a total volume of 50 μL) were mixed into 80 μL of methanol, vortexed and transferred to vials for injection. Analysis of DAHP by UHPLC-MS was conducted using the same chromatographic settings as described for the UHPLC-MS analysis of soluble metabolites and compared with an authentic DAHP standard (Sta. Cruz biotechnology, cat. no. sc-216432).

[2] = target: Arabidopsis thaliana AtDHS2 (Arabidopsis thaliana, UniProt Q00218); test: DHS inhibition assay with hydrolyzed arogenate; assay type: biochemical; details: arogenate treated with 1N HCl for 30 minutes (FIG. 16A)
Method: All DHS effectors tested were included in the initial reaction mixtures at a concentration of 0.5 mM, except for IC50 determination for arogenate and tryptophan, in which variable concentrations were used. To ensure at least 10 minutes of linear reaction, enzyme mass per reaction was carefully adjusted to between 100 to 300 ng (depending on the specific activity of each specific isoform) using DHS storage buffer supplemented with BSA. […] The enzymatic reaction was started with the addition of E4P (variable concentration, see below).

[3] = target: T1, Brachypodium distachyon BdTyrAnc (non-canonical TyrA), SEQ ID NO: 37, recombinant (Brachypodium distachyon, UniProt I1GYB3); test: TyrA arogenate dehydrogenase kinetics and tyrosine inhibition (340 nm); assay type: biochemical; details: arogenate and NADP^+
T1 construct: from cDNA
T1 sequence (I1GYB3 58-361): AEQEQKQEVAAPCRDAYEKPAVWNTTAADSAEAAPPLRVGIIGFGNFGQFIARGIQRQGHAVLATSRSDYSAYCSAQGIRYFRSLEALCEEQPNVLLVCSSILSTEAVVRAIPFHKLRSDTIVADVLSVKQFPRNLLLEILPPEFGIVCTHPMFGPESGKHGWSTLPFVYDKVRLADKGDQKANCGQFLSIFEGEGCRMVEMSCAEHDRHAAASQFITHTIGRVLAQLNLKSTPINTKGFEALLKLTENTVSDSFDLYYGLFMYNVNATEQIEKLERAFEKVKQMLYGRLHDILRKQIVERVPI
Excerpt: (§4) Next, to study the biochemical properties of grass TyrA enzymes, we generated and characterized recombinant purified TyrA proteins from Brachypodium (BdTyrA) and Sorghum (SbTyrA), two distantly related grass species^43, 44. Whereas TyrA enzymes from dicot plants are generally NADP^+-dependent arogenate dehydrogenases^20, 39, 45, except for NADP^+-prephenate dehydrogenases in the legume family^40, 46, previous reports on the substrate preference of grass TyrA enzymes are inconclusive^17, 19. […] NAD^+-prephenate dehydrogenase activity was absent in all cases, ruling out a significant contamination of the enzyme preparations with the TyrA enzyme from E. coli^47.48.

[4] = target: T2, Sorghum bicolor SbTyrAnc (non-canonical TyrA), SEQ ID NO: 43, recombinant (Sorghum bicolor, UniProt C5Z447); test: as above; assay type: biochemical; details: arogenate and NADP^+
T2 construct: from cDNA
T2 sequence (C5Z447 56-382): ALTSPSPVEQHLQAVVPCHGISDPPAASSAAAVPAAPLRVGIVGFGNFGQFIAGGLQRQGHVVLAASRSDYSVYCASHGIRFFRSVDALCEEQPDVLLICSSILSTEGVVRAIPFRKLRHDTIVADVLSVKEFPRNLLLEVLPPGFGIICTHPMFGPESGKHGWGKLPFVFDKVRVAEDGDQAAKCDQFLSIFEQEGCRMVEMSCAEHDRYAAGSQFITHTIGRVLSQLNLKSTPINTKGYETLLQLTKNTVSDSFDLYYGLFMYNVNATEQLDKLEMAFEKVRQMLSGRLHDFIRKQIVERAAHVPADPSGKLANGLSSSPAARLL
Excerpt: as §4

[5] = target: Brachypodium distachyon BdDHS1a, SEQ ID NO: 1, recombinant (Brachypodium distachyon, UniProt I1GSB3); test: DHS activity: kinetics and effector inhibition
Excerpt: as §1, §2, §3

[6] = target: Brachypodium distachyon BdDHS1b, SEQ ID NO: 3, recombinant (Brachypodium distachyon, UniProt I1H4W3); test: DHS activity: kinetics and effector inhibition; assay type: biochemical
Excerpt: as §1, §2, §3

[7] = target: Brachypodium distachyon BdDHS2, SEQ ID NO: 5, recombinant (Brachypodium distachyon, UniProt I1I809); test: DHS activity: kinetics and effector inhibition; assay type: biochemical
Excerpt: as §1, §2, §3

[8] = target: Sorghum bicolor SbDHS1a, SEQ ID NO: 9, recombinant (Sorghum bicolor, UniProt C5X2H5); test: DHS activity: effector inhibition; assay type: biochemical; details: effector 0.5 mM
Method: (§5) In contrast, BdDHS1b was not inhibited by arogenate even up to 2.5 mM. In fact, DHS1b activity increased in the presence of high concentrations of arogenate (FIG. 4F), likely due to high concentrations of contaminant NaCl present in the arogenate preparation (FIG. 16). Under acidic conditions, arogenate is known to undergo a spontaneous dehydration and decarboxylation into […]. […] Like in Brachypodium DHS enzymes, 0.5 mM arogenate inhibited SbDHS1a and SbDHS2 at ˜50% and ˜40%, respectively, but had no effect on SbDHS1b.

[9] = target: Sorghum bicolor SbDHS1b, SEQ ID NO: 11, recombinant (Sorghum bicolor, UniProt C5WXQ3); test: DHS activity: effector inhibition; assay type: biochemical; details: effector 0.5 mM
Method: as §5

[10] = target: T3, Sorghum bicolor SbDHS2, SEQ ID NO: 13, recombinant (Sorghum bicolor, UniProt C5YJQ4); test: DHS activity: effector inhibition; assay type: biochemical; details: effector 0.5 mM
T3 construct: pET28a (NdeI/BamHI), E. coli KRX
Method: as §5

Brachypodium distachyon BdDHS1a, SEQ ID NO: 1, recombinant, sequence (I1GSB3 46-537): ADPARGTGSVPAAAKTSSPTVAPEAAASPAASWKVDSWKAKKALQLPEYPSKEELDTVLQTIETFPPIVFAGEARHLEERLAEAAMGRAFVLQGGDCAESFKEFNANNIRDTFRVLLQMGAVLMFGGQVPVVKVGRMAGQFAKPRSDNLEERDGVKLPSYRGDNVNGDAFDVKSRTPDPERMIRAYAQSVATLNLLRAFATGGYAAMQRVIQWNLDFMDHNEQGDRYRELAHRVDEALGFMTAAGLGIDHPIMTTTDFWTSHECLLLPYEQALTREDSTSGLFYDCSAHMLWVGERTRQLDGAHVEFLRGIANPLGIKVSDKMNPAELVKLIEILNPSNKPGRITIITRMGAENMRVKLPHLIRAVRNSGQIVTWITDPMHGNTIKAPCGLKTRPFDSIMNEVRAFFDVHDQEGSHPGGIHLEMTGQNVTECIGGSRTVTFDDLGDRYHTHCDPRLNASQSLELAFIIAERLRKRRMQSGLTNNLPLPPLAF
Brachypodium distachyon BdDHS2, SEQ ID NO: 5, recombinant, sequence (I1I809 31-503): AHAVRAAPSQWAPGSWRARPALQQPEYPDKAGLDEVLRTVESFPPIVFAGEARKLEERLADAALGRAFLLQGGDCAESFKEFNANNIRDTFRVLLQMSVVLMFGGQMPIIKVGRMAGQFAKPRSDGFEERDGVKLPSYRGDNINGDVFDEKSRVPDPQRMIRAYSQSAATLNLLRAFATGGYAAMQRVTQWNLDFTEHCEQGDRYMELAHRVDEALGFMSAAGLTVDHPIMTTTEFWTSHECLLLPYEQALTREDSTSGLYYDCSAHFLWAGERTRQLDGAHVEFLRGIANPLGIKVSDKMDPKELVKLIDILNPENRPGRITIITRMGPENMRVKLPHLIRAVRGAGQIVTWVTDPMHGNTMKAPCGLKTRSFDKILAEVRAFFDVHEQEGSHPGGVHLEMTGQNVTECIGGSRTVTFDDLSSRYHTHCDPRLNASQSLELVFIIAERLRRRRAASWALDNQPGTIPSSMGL
Brachypodium distachyon BdDHS1b, SEQ ID NO: 3, recombinant, sequence (I1H4W3 37-542): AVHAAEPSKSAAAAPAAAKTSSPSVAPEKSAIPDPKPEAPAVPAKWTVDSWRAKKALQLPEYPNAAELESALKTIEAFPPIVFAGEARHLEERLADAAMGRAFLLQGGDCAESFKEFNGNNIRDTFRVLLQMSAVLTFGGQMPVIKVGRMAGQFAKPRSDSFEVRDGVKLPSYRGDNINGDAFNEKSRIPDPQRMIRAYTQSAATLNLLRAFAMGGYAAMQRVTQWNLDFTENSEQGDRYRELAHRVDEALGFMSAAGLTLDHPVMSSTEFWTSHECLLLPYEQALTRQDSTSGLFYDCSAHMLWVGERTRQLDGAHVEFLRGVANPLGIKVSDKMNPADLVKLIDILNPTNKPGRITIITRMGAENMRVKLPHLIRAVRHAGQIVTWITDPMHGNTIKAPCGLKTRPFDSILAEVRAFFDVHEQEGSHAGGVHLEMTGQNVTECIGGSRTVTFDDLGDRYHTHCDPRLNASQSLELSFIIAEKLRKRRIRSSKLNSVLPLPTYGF
Sorghum bicolor SbDHS1b, SEQ ID NO: 11, recombinant, sequence (C5WXQ3 48-551): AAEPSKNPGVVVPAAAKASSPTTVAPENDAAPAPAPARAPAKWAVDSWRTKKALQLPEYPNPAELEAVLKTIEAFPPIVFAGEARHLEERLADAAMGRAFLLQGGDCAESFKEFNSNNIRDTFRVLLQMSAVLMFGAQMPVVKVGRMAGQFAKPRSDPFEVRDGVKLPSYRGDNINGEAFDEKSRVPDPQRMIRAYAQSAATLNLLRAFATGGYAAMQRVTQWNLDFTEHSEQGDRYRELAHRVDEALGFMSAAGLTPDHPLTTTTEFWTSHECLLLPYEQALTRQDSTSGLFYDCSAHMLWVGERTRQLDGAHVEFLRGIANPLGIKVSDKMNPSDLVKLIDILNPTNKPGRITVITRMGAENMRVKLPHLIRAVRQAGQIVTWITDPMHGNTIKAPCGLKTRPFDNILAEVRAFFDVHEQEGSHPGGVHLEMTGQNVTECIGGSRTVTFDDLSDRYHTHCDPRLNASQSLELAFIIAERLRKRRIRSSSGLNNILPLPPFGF
T3 sequence (C5YJQ4 42-508): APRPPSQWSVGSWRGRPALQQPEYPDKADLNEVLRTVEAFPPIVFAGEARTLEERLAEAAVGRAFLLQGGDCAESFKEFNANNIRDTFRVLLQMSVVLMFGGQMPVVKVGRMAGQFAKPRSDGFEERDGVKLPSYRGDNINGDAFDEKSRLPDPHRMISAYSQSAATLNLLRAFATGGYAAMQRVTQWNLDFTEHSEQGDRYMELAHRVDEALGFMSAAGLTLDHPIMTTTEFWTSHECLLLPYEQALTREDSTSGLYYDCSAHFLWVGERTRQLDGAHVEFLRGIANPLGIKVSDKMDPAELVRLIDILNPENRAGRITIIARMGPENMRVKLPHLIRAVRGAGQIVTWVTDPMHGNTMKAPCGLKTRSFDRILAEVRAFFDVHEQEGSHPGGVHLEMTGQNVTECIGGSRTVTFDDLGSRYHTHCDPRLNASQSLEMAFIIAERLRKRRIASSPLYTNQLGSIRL
Arabidopsis thaliana AtDHS2, sequence (Q00218 2-507): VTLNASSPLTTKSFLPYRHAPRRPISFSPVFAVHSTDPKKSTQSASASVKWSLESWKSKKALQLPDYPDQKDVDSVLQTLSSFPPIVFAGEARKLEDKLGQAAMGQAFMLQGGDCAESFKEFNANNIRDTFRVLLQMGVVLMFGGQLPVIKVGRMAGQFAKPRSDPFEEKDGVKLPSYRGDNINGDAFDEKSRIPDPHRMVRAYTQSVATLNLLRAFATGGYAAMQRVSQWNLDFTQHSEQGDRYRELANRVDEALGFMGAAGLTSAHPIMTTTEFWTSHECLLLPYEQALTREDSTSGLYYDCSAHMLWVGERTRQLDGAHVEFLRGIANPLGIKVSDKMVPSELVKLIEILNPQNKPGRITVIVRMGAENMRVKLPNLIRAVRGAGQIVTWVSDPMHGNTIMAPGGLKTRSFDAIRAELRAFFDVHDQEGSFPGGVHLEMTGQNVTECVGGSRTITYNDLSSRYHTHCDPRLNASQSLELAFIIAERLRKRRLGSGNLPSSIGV
Sorghum bicolor SbDHS1a, SEQ ID NO: 9, recombinant, sequence (C5X2H5 46-540): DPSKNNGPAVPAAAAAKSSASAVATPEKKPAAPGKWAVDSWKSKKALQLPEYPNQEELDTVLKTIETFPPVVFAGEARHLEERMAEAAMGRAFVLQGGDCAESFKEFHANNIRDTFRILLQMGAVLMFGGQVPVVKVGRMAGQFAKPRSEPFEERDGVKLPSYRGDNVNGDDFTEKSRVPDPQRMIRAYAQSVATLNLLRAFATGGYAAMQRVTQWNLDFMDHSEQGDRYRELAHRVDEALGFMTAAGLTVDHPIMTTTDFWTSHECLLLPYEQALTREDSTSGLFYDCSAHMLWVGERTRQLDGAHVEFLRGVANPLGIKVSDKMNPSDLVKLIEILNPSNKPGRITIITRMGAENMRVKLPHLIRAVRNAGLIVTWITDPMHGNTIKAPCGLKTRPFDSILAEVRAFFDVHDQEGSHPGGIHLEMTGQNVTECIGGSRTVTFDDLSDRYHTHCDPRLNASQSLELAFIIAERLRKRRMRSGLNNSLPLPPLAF

Row | Compound | inhibition by hydrolyzed arogenate [1] | inhibition by hydrolyzed arogenate ([1]; listed as Arogenate that is hydrolyzed to phenylalanine) | inhibition by hydrolyzed arogenate [2] | kcat/Km [3] [M⁻¹ s⁻¹] | kcat/Km [4] [M⁻¹ s⁻¹] | IC50 ([5]; IC50 (arogenate), 1.5 mM PEP, 2 mM E4P) | inhibition at 500 µM ([5]; read-out: inhibition at 0.5 mM) [%] | inhibition by arogenate up to 2.5 mM ([6]; even up to 2.5 mM) | IC50 ([6]; read-out: IC50 (arogenate)) [µM] | IC50 ([7]; 1.5 mM PEP, 2 mM E4P, read-out: IC50 (arogenate)) | mode of inhibition with respect to E4P ([7]; FIG. 18) | mode of inhibition with respect to PEP ([7]; FIG. 18) | inhibition at 500 µM ([7]; effector 0.5 mM, read-out: inhibition at 0.5 mM) [%] | inhibition at 500 µM [8] [%] | effect at 0.5 mM [9] | inhibition at 500 µM [10] [%]
1 | N[C@@H](Cc1ccccc1)C(=O)O [Arogenate incubated with HCl] | did not inhibit | does not inhibit | does not inhibit |  |  |  |  |  |  |  |  |  |  |  |  | 
2 | N[C@@H](CC1(C(=O)O)C=CC(O)C=C1)C(=O)O (stereo partly shown) [arogenate] |  |  |  | 579600 ± 24300 | 337500 ± 19500 | ~285 µM and 285 µM | ~50 | not inhibited | > 500 | ~91 µM and 91 µM | uncompetitive inhibition kinetics | mixed inhibition mechanism | > 75 | ~50 | no effect | ~40
